Here are results for four compounds from patent EP0470275B1, “Skin whitening cosmetics” (priority 1990, dated 1992).

The structures appear in SMILES notation.

One data set relates to pigmentation. Briefly: Animal experiments on inhibition of pigmentation (general statement, no method given). It counts as in vivo. Conditions: compared with free fatty acids or alkyl esters thereof.
Data set [1] can be described thus: Solubility of linoleic acid in a silicone oil or a mixed silicone oil.

Turning to `CCCCCCCCCCCCCCCCCC(=O)O` [stearic acid], in the data set with pigmentation, the “effects on inhibition of pigmentation” value is on record as “no such significant effects”. Turning to `CC/C=C\C/C=C\C/C=C\CCCCCCCC(=O)O` [α-linolenic acid], the Solubility in dimethylpolysiloxane entry in data set [1] is “not soluble”. For the compound `CCCCCCCCCCCCCCCC(=O)O` [palmitic acid], the “effects on inhibition of pigmentation” value in the data set on pigmentation is on record as “no such significant effects”. In the case of `CCCCC/C=C\C/C=C\CCCCCCCC(=O)O` [linoleic acid], the Solubility in dimethylpolysiloxane result in data set [1] is recorded as “not soluble”.
